Earlier results on 6 compounds are cited in patent US20060287529A1, “Solid phase synthesis of antitumoral compounds” (priority 2003, published 2006).

The test system of one series is A549 cell line. Particulars: A549 cell line in culture; background statement.
A further series deals with P388 cell line. Particulars: P388 cell line in culture; background statement.
In another series the test system is fertilised sea urchin. Particulars: fertilised sea urchin assay; background statement.
The test system of a further series is lung cancer cell lines. Particulars: acting as a Type IV microtubule poison; background statement.

lamellarin I: the cytotoxicity entry in the series with A549 cell line and in the series with P388 cell line was “comparable cytoxicity” in each case.
For the compound lamellarin K, the cytotoxicity entry in the series with A549 cell line and with P388 cell line was “comparable cytoxicity” each time.
Regarding `COc1cc(-c2c3n(c4c(=O)oc5cc(O)c(OC)cc5c24)CCc2c-3cc(OC)c(OC)c2OC)ccc1O` [lamellarin C], the “inhibition of cell division” value in the series with fertilised sea urchin was “inhibition of cell division”.
As for `COc1ccc(-c2c3n(c4c(=O)oc5cc(O)c(OC)cc5c24)CCc2cc(O)c(OC)cc2-3)cc1O` [lamellarin L, 8,9-dihydro-3,11-dihydroxy-2,12-dimethoxy-14-(3′-hydroxy-4′-methoxy-phenyl)-6H-[1]benzopyrano[4′,3′:4,5]pyrrolo[2,1-α]isoquinolin-6-one], the cytotoxicity result with A549 cell line and in the series on P388 cell line was “comparable cytoxicity” in each case.
Consider `COc1ccc(-c2c3c4cc(OC)c(O)cc4oc(=O)c3n3ccc4cc(O)c(OC)cc4c23)cc1O` [lamellarin N, 3,10-dihydroxy-2,12-dimethoxy-14-(3′-hydroxy-4′-methoxy-phenyl)-6H-[1]benzopyrano[4′,3′:4,5]pyrrolo[2,1-α]isoquinolin-6-one], for which the “activity in lung cancer cell lines” value in the series on lung cancer cell lines is “exhibit activity”.
For the compound lamellarin D, the “inhibition of cell division” value in the series with fertilised sea urchin is recorded as “inhibition of cell division”.
